From patent US6413530B1, “Pesticidal peptides” (priority 1999, dated 2002)
Where two headings read alike, the source gives them in different places. Where a SMILES comes first, the peptide text is derived from it. Where no end group is shown, it is not given here. [ ]: non-standard residue; d: D form.

Experiments:
mosquito larvae = format: in vivo; conditions: newly hatched larvae on autoclaved yeast 1 mg/ml plus peptide, microtiter plates, 7 days
Procedure: Preferably, the subject peptides have an LD50 against mosquito larvae of less than 3.0 μmole/ml. More preferably, the peptides have an LD50 of less than […], and, most preferably, the peptides have an LD50 of less than 1.0 μmole/ml. As used herein, “LD50” refers to a lethal dose of a peptide able to cause 50% mortality of larvae maintained on a diet of 1 mg/ml autoclaved yeast supplemented with the pesticidal polypeptide. (Borovsky, Dov, and Farida Mahmood [1995] Regulatory Peptides 57:273-281).
TMOF can traverse the gut epithelium, enter the hemolymph and bind a gut receptor (Borovsky, D. and F. Mahmood (1995) “Feeding the mosquito Aedes aegypti with TMOF and its analogs; effect on trypsin biosynthesis and egg development,” Regulatory Peptides 57:273-281.; Borovsky et al. (1994) “Characterization and localization of mosquito-gut receptors for trypsin modulating oostatic factor using complementary peptide immunochemistry” FASEB J. 8:350-355.). This characteristic permits the testing of TMOF and its analogues by feeding them to mosquito and other pest larvae. To find out if truncated TMOF peptides have an effect on larval growth and development, a series of peptides were synthesized and tested by feeding them to mosquito larvae at concentrations of 0 to 5.0 mg/ml (Table 2). Individual, newly hatched Aedes aegypti larvae were maintained in separate microtiter plate wells on a diet of autoclaved yeast (1 mg/ml). The diet was supplemented with TMOF peptides (Table 2). An identical number of larvae maintained on yeast served as a control. […] All control groups survived and larval growth and development was normal. Since larvae swallow only a small portion of the yeast particles adsorbed the peptides, it is assumed that approximately 1 to 20 ng are taken orally at the high concentrations.

[1] = system: fourth instar H. virescens; experiment: Feeding TMOF analogues to fourth instar H. virescens: larval weight; format: in vivo, Heliothis virescens; conditions: for reduction in larval weight: fourth instar larvae fed analogue peptides for 5 days; for Weight Gain / Weight mg ± S.E.M. End: fourth instar larvae; for Weight Gain: 0.8 μg analog for 5 days; for Weight mg ± S.E.M. End: synthetic food and 0.8 μg analog for 5 days
Procedure: (§1) Individual first instar and fourth instar larvae of H. virescens were maintained in separate plastic cups and were fed on artificial diet blocks on which different concentrations of TMOF (0 to 1.6 mg) were adsorbed. Larvae were fed for 5 to 14 days and larval weight and trypsin activity were measured at the end of the experimental periods. […] When first instar larvae were fed for 14 days, an 18% and 26% reduction in weight was observed when analogues 15 and 14 were used (Table 4).

trypsin biosynthesis = experiment: Trypsin biosynthesis in guts of fourth instar H. virescens fed TMOF analogues ([3H]DFP); format: in vivo, Heliothis virescens; conditions: for reduction in trypsin biosynthesis: fourth instar larvae fed analogue peptides for 5 days; for Trypsin μg ± S.E.M.: guts removed after 5 days feeding 0.8 μg analog, incubated with [3H]DFP; for Inhibition (% ± S.E.M.) of trypsin: versus control, after 5 days feeding 0.8 μg analog
Procedure: as §1

[2] = system: First instar larvae of H. virescens; experiment: Feeding of first instar H. virescens on TMOF analogs for 14 days; format: in vivo, Heliothis virescens; conditions: for reduction in weight: first instar larvae fed for 14 days; for Number of Dead Larvae / Weight (mg) ± S.E.M. / Weight Reduction (%) ± S.E.M.: first instar larvae, 1.6 μg analog, 14 days; for Weight Reduction (%) ± S.E.M.: versus control
Procedure: as §1

YNPAP [Compound 9, YNPAP] was tested, and the “LD50 ± S.E.M.” value (mosquito larvae; left half of Table 2) was 0.55 ± 0.03 mM.

In the case of YDAAP [Compound 15, YDAAP], the “LD50 ± S.E.M.” value (mosquito larvae; left half of Table 2) was 1.0 ± 0.18 mM, the “reduction in larval weight” value [1] was “reduction” and the “Weight Gain” value [1] was 179 mg. The “Weight mg ± S.E.M. End” value [1] was 217 ± 9.5 mg, the “reduction in trypsin biosynthesis” value (trypsin biosynthesis) was “reduction” and the “Trypsin μg ± S.E.M.” value (trypsin biosynthesis) was 2.1 ± 0.2 µg. The “Inhibition (% ± S.E.M.) of trypsin” value (trypsin biosynthesis) was 17 ± 1.6%, the “reduction in weight” value [2] was 18% and the “Number of Dead Larvae” value [2] was 0. The “Weight (mg) ± S.E.M.” value [2] was 133 ± 7 mg and the “Weight Reduction (%) ± S.E.M.” value [2] was 18 ± 1%.

With FSP [Compound 35] the “LD50 ± S.E.M.” value (mosquito larvae; right half of Table 2) was 2.3 ± 0.13 Mm.

“YDPAPPPPPP [Compound 1, YDPAP6, reference compound]” was tested, and the “LD50 ± S.E.M.” value (mosquito larvae; left half of Table 2) was 0.2 ± 0.02 mM.

(D)YDP [Compound 24] was tested, and the “LD50 ± S.E.M.” value (mosquito larvae; right half of Table 2) was 0.51 ± 0.05 Mm.

In the case of DYP [Compound 31], the “LD50 ± S.E.M.” value (mosquito larvae; right half of Table 2) was 1.27 ± 0.17 Mm, the “Weight Gain” value [1] was 180.5 mg and the “Weight mg ± S.E.M. End” value [1] was 216.7 ± 13 mg. For the same molecule, the “Trypsin μg ± S.E.M.” value (trypsin biosynthesis) was 2.2 ± 0.3 µg, the “Inhibition (% ± S.E.M.) of trypsin” value (trypsin biosynthesis) was 14 ± 1.8% and the “Number of Dead Larvae” value [2] was 1. The “Weight (mg) ± S.E.M.” value [2] was 149 ± 9 mg and the “Weight Reduction (%) ± S.E.M.” value [2] was 9 ± 0.5%.

For YDPLP [Compound 6, YDPLP], the “LD50 ± S.E.M.” value (mosquito larvae; left half of Table 2) was 1.5 ± 0.04 mM.

In the case of YDLAP [Compound 13, YDLAP], the “LD50 ± S.E.M.” value (mosquito larvae; left half of Table 2) was 0.6 ± 0.05 mM.

For YDPAL [Compound 7, YDPAL], the “LD50 ± S.E.M.” value (mosquito larvae; left half of Table 2) was 0.52 ± 0.03 mM.

With YDA [Compound 32] the “LD50 ± S.E.M.” value (mosquito larvae; right half of Table 2) was 1.6 ± 0.13 Mm.

For FDPAP [Compound 5, FDPAP], the “LD50 ± S.E.M.” value (mosquito larvae; left half of Table 2) was 0.37 ± 0.15 mM.

For PAP [Compound 38], the “LD50 ± S.E.M.” value (mosquito larvae; right half of Table 2) was 3.17 ± 0.14 Mm.

With “YDPAP [Compound 12, YDPAP, reference compound]” the “LD50 ± S.E.M.” value (mosquito larvae; left half of Table 2) was 1.64 ± 0.03 mM.

In the case of YSF [Compound 30], the “LD50 ± S.E.M.” value (mosquito larvae; right half of Table 2) was 1.08 ± 0.12 Mm.

AAP [Compound 29] was tested, and the “LD50 ± S.E.M.” value (mosquito larvae; right half of Table 2) was 1.08 ± 0.07 Mm.

With FAP [Compound 39] the “LD50 ± S.E.M.” value (mosquito larvae; right half of Table 2) was 3.8 ± 0.23 Mm.

In the case of YAP [Compound 36], the “LD50 ± S.E.M.” value (mosquito larvae; right half of Table 2) was 2.3 ± 0.5 Mm.

With YDPAF [Compound 3, YDPAF] the “LD50 ± S.E.M.” value (mosquito larvae; left half of Table 2) was 0.33 ± 0.2 mM.

PAA [Compound 37] was tested, and the “LD50 ± S.E.M.” value (mosquito larvae; right half of Table 2) was 2.4 ± 0.34 Mm.

In the case of YFPAP [Compound 11, YFPAP], the “LD50 ± S.E.M.” value (mosquito larvae; left half of Table 2) was 0.64 ± 0.03 mM.

For YDG [Compound 26], the “LD50 ± S.E.M.” value (mosquito larvae; right half of Table 2) was 0.95 ± 0.11 Mm.

For YDFAP [Compound 14, YDFAP], the “LD50 ± S.E.M.” value (mosquito larvae; left half of Table 2) was 0.74 ± 0.13 mM, the “reduction in larval weight” value [1] was “reduction” and the “Weight Gain” value [1] was 164 mg. For the same molecule, the “Weight mg ± S.E.M. End” value [1] was 201 ± 12 mg, the “reduction in trypsin biosynthesis” value (trypsin biosynthesis) was “reduction” and the “Trypsin μg ± S.E.M.” value (trypsin biosynthesis) was 2.1 ± 0.2 µg. The “Inhibition (% ± S.E.M.) of trypsin” value (trypsin biosynthesis) was 19 ± 1.5%, the “reduction in weight” value [2] was 26% and the “Number of Dead Larvae” value [2] was 1. The “Weight (mg) ± S.E.M.” value [2] was 121 ± 7 mg and the “Weight Reduction (%) ± S.E.M.” value [2] was 26 ± 1.5%.

For YAPAP [Compound 8, YAPAP], the “LD50 ± S.E.M.” value (mosquito larvae; left half of Table 2) was 0.54 ± 0.13 mM.

For ADP [Compound 40], the “LD50 ± S.E.M.” value (mosquito larvae; right half of Table 2) was over 6.6 Mm.

With YDF [Compound 27] the “LD50 ± S.E.M.” value (mosquito larvae; right half of Table 2) was 0.97 ± 0.11 Mm.

APA [Compound 28] was tested, and the “LD50 ± S.E.M.” value (mosquito larvae; right half of Table 2) was 1.0 ± 0.07 Mm.

With DPA [Compound 23] the “LD50 ± S.E.M.” value (mosquito larvae; right half of Table 2) was 0.4 ± 0.03 Mm.

For YDP [Compound 34], the “LD50 ± S.E.M.” value (mosquito larvae; right half of Table 2) was 2.3 ± 0.4 Mm, the “Weight Gain” value [1] was 186.3 mg and the “Weight mg ± S.E.M. End” value [1] was 223.4 ± 16 mg. The “Trypsin μg ± S.E.M.” value (trypsin biosynthesis) was 2.1 ± 0.3 µg, the “Inhibition (% ± S.E.M.) of trypsin” value (trypsin biosynthesis) was 19 ± 3.2% and the “Number of Dead Larvae” value [2] was 0. For the same molecule, the “Weight (mg) ± S.E.M.” value [2] was 157 ± 10 mg and the “Weight Reduction (%) ± S.E.M.” value [2] was 4 ± 0.2%.

In the case of ADPAP [Compound 21, ADPAP], the “LD50 ± S.E.M.” value (mosquito larvae; left half of Table 2) was 2.0 ± 0.36 mM, the “Weight Gain” value [1] was 174.1 mg and the “Weight mg ± S.E.M. End” value [1] was 209.7 ± 12 mg. The “Trypsin μg ± S.E.M.” value (trypsin biosynthesis) was 2.4 ± 0.3 µg, the “Inhibition (% ± S.E.M.) of trypsin” value (trypsin biosynthesis) was 5 ± 0.6% and the “Number of Dead Larvae” value [2] was 0. For the same molecule, the “Weight (mg) ± S.E.M.” value [2] was 141 ± 9 mg and the “Weight Reduction (%) ± S.E.M.” value [2] was 7 ± 0.4%.

YDPGP [Compound 16, YDPGP] was tested, and the “LD50 ± S.E.M.” value (mosquito larvae; left half of Table 2) was 1.1 ± 0.18 mM, the “Weight Gain” value [1] was 163.1 mg and the “Weight mg ± S.E.M. End” value [1] was 199.8 ± 11 mg. The “Trypsin μg ± S.E.M.” value (trypsin biosynthesis) was 2.1 ± 0.1 µg, the “Inhibition (% ± S.E.M.) of trypsin” value (trypsin biosynthesis) was 17 ± 1% and the “Number of Dead Larvae” value [2] was 2. For the same molecule, the “Weight (mg) ± S.E.M.” value [2] was 153 ± 10 mg and the “Weight Reduction (%) ± S.E.M.” value [2] was 6 ± 0.4%.

In the case of YSPAP [Compound 18, YSPAP], the “LD50 ± S.E.M.” value (mosquito larvae; left half of Table 2) was 1.4 ± 0.03 mM, the “reduction in larval weight” value [1] was “reduction” and the “Weight Gain” value [1] was 151 mg. The “Weight mg ± S.E.M. End” value [1] was 188 ± 10.6 mg, the “reduction in trypsin biosynthesis” value (trypsin biosynthesis) was “reduction” and the “Trypsin μg ± S.E.M.” value (trypsin biosynthesis) was 2.0 ± 0.2 µg. The “Inhibition (% ± S.E.M.) of trypsin” value (trypsin biosynthesis) was 19 ± 2%, the “Number of Dead Larvae” value [2] was 0 and the “Weight (mg) ± S.E.M.” value [2] was 168 ± 11 mg. For the same molecule, the “Weight Reduction (%) ± S.E.M.” value [2] was 0%.

C[C@H](NC(=O)[C@@H]1CCCN1C(=O)[C@@H](CC(=O)O)NC(=O)[C@@H](N)Cc1ccc(O)cc1)C(=O)N1CCC[C@H]1C(=O)O [Compound 17, Y(D)DPAP] (H-Y[dD]PAP-OH; N-terminus and C-terminus assumed) was tested, and the “Weight Gain” value [1] was 153 mg, the “Weight mg ± S.E.M. End” value [1] was 188 ± 12 mg and the “Trypsin μg ± S.E.M.” value (trypsin biosynthesis) was 2.1 ± 0.2 µg. For the same molecule, the “Inhibition (% ± S.E.M.) of trypsin” value (trypsin biosynthesis) was 15 ± 1.3%, the “Number of Dead Larvae” value [2] was 1 and the “Weight (mg) ± S.E.M.” value [2] was 152 ± 27 mg. The “Weight Reduction (%) ± S.E.M.” value [2] was 7 ± 1%.

In the case of DAA [Compound 25], the “LD50 ± S.E.M.” value (mosquito larvae; right half of Table 2) was 0.91 ± 0.06 Mm.

In the case of MPDYPPPPP [Compound 2, MPDYP5], the “LD50 ± S.E.M.” value (mosquito larvae; left half of Table 2) was over 3.0 mM.

With YDPAA [Compound 19, YDPAA] the “LD50 ± S.E.M.” value (mosquito larvae; left half of Table 2) was 1.6 ± 0.13 mM.

N[C@@H](Cc1ccc(O)cc1)C(=O)N[C@H](CC(=O)O)C(=O)N1CCC[C@H]1C(=O)O [Compound 22, Y(D)DP] (H-Tyr-[dD]-Pro-OH; N-terminus and C-terminus assumed) was tested, and the “LD50 ± S.E.M.” value (mosquito larvae; left half of Table 2) was 0.28 ± 0.01 mM.

In the case of FDP [Compound 33], the “LD50 ± S.E.M.” value (mosquito larvae; right half of Table 2) was 1.98 ± 0.6 Mm.

In the case of YEPAP [Compound 4, YEPAP], the “LD50 ± S.E.M.” value (mosquito larvae; left half of Table 2) was 0.35 ± 0.02 mM.

In the case of YDPFP [Compound 20, YDPFP], the “LD50 ± S.E.M.” value (mosquito larvae; left half of Table 2) was 1.7 ± 0.4 mM.
